According to patent US12077503B2, “Substituted cyclic amides and their use as herbicides” (FMC CORPORATION, priority 2015, dated 2024):

Tests used:
Format in all cases: in vivo
Kochia (Kochia scoparia) [1] = experiment: Test A preemergence; details: Bassia scoparia, pre-emergence, 240 h; for pest or weed control at 125 g/ha: 125 g ai/ha, preemergence, 0 to 100 scale where 0 is no effect and 100 is complete control, read-out: Kochia plant response rating; for pest or weed control at 500 g/ha: 500 g ai/ha, Preemergence, visual injury vs untreated controls after approximately 10 d, read-out: Kochia plant response rating (0 to 100 scale where 0 is no effect and 100 is complete control)
How it was run: (§1)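 Greenhouse, ~10 d after spray; visual injury vs untreated controls, 0 = no effect, 100 = complete control. Preemergence: directed soil spray over planted seeds. Postemergence: plants 2–10 cm, 1–2 leaf stage. Loam/sand blend. Compound in non-phytotoxic solvent with surfactant.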

[2] = tested on: barnyardgrass (Echinochloa crus-galli); experiment: Test A preemergence; details: Echinochloa crus-galli, pre-emergence, 240 h; for pest or weed control at 125 g/ha: 125 g ai/ha, preemergence, 0 to 100 scale where 0 is no effect and 100 is complete control, read-out: Barnyardgrass plant response rating; for pest or weed control at 500 g/ha: 500 g ai/ha, Preemergence, visual injury vs untreated controls after approximately 10 d, read-out: Barnyardgrass plant response rating (0 to 100 scale where 0 is no effect and 100 is complete control)
How it was run: as §1

[3] = tested on: giant foxtail (Setaria faberii); experiment: Test A preemergence; details: Setaria faberi, pre-emergence, 240 h; for pest or weed control at 125 g/ha: 125 g ai/ha, preemergence, 0 to 100 scale where 0 is no effect and 100 is complete control, read-out: Foxtail, Giant plant response rating; for pest or weed control at 500 g/ha: 500 g ai/ha, Preemergence, visual injury vs untreated controls after approximately 10 d, read-out: Foxtail, Giant plant response rating (0 to 100 scale where 0 is no effect and 100 is complete control)
How it was run: as §1

[4] = tested on: pigweed (Amaranthus retroflexus); experiment: Test A preemergence; details: Amaranthus retroflexus, pre-emergence, 240 h; for pest or weed control at 125 g/ha: 125 g ai/ha, preemergence, 0 to 100 scale where 0 is no effect and 100 is complete control, read-out: Pigweed plant response rating; for pest or weed control at 500 g/ha: 500 g ai/ha, Preemergence, visual injury vs untreated controls after approximately 10 d, read-out: Pigweed plant response rating (0 to 100 scale where 0 is no effect and 100 is complete control)
[5] = tested on: ragweed (common ragweed, Ambrosia elatior); experiment: Test A preemergence; details: Ambrosia artemisiifolia, pre-emergence, 240 h; for pest or weed control at 125 g/ha: 125 g ai/ha, preemergence, 0 to 100 scale where 0 is no effect and 100 is complete control, read-out: Ragweed plant response rating; for pest or weed control at 500 g/ha: 500 g ai/ha, Preemergence, visual injury vs untreated controls after approximately 10 d, read-out: Ragweed plant response rating (0 to 100 scale where 0 is no effect and 100 is complete control)
How it was run: as §1

[6] = tested on: ryegrass, Italian (Italian ryegrass, Lolium multiflorum); experiment: Test A preemergence; details: Lolium multiflorum, pre-emergence, 240 h; for pest or weed control at 125 g/ha: 125 g ai/ha, preemergence, 0 to 100 scale where 0 is no effect and 100 is complete control, read-out: Ryegrass, Italian plant response rating; for pest or weed control at 500 g/ha: 500 g ai/ha, Preemergence, visual injury vs untreated controls after approximately 10 d, read-out: Ryegrass, Italian plant response rating (0 to 100 scale where 0 is no effect and 100 is complete control)
How it was run: as §1

[7] = tested on: Galium (catchweed bedstraw, Galium aparine); experiment: Test A postemergence; details: Galium, post-emergence, 240 h, 125 g ai/ha, postemergence, visual injury rating after approximately 10 d; read-out: Galium plant response rating (0 to 100 scale, 0 no effect, 100 complete control)
How it was run: as §1

Kochia (Kochia scoparia) [8] = experiment: Test A postemergence; details: Bassia scoparia, post-emergence, 240 h, 125 g ai/ha, postemergence, visual injury rating after approximately 10 d; read-out: Kochia plant response rating (0 to 100 scale, 0 no effect, 100 complete control)
How it was run: as §1

[9] = tested on: barnyardgrass (Echinochloa crus-galli); experiment: Test A postemergence; details: Echinochloa crus-galli, post-emergence, 240 h, 125 g ai/ha, postemergence, visual injury rating after approximately 10 d; read-out: Barnyardgrass plant response rating (0 to 100 scale, 0 no effect, 100 complete control)
How it was run: as §1

corn (Zea mays) = experiment: Test A postemergence; details: Zea mays, post-emergence, 240 h, 125 g ai/ha, postemergence, visual injury rating after approximately 10 d; read-out: Corn plant response rating (0 to 100 scale, 0 no effect, 100 complete control)
How it was run: as §1

[10] = tested on: pigweed (Amaranthus retroflexus); experiment: Test A postemergence; details: Amaranthus retroflexus, post-emergence, 240 h, 125 g ai/ha, postemergence, visual injury rating after approximately 10 d; read-out: Pigweed plant response rating (0 to 100 scale, 0 no effect, 100 complete control)
How it was run: as §1

[11] = tested on: barnyardgrass (Echinochloa crus-galli); experiment: Test B flooded paddy test; details: Echinochloa crus-galli, Flood, 250 g ai/ha; scale of 0 to 100 where 0 is no effect and 100 is complete control; read-out: Barnyardgrass plant response rating
How it was run: (§2)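 2-leaf plants; pots flooded 3 cm over soil; cpd added to paddy water; depth held; greenhouse 13–15 d; visual rating vs controls, 0 = no effect, 100 = complete control.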

[12] = tested on: ducksalad (Heteranthera limosa); experiment: Test B flooded paddy test; details: Heteranthera limosa, Flood, 250 g ai/ha; scale of 0 to 100 where 0 is no effect and 100 is complete control; read-out: Ducksalad plant response rating
How it was run: as §2

rice (Oryra sativa) = experiment: Test B flooded paddy test; details: Oryza sativa, Flood, 250 g ai/ha; scale of 0 to 100 where 0 is no effect and 100 is complete control; read-out: Rice plant response rating
How it was run: as §2

[13] = tested on: sedge, umbrella (small-flower umbrella sedge, Cyperus difformis); experiment: Test B flooded paddy test; details: Cyperus difformis, Flood, 250 g ai/ha; scale of 0 to 100 where 0 is no effect and 100 is complete control; read-out: Sedge, Umbrella plant response rating
How it was run: as §2

SMILES	pest or weed control at 125 g/ha (Kochia (Kochia scoparia) [1]) [%]	pest or weed control at 125 g/ha [2] [%]	pest or weed control at 500 g/ha [2] [%]	pest or weed control at 125 g/ha [3] [%]	pest or weed control at 500 g/ha [3] [%]	pest or weed control at 125 g/ha [4] [%]	pest or weed control at 500 g/ha [4] [%]	pest or weed control at 125 g/ha [5] [%]	pest or weed control at 500 g/ha [5] [%]	pest or weed control at 125 g/ha [6] [%]	pest or weed control at 500 g/ha [6] [%]	pest or weed control at 125 g/ha [7] [%]	pest or weed control at 125 g/ha (Kochia (Kochia scoparia) [8]) [%]	pest or weed control at 125 g/ha [9] [%]	plant injury at 125 g/ha (corn (Zea mays)) [%]	pest or weed control at 125 g/ha [10] [%]	pest or weed control at 250 g/ha [11] [%]	pest or weed control at 250 g/ha [12] [%]	pest or weed control at 250 g/ha (rice (Oryra sativa)) [%]	pest or weed control at 250 g/ha [13] [%]	further results
COc1ccc([C@H]2CN(C)C(=O)[C@@H]2C(=O)Nc2cccc(F)c2F)cc1OC [Compound 853]	40	90	100	90	100	40	40	0	20	0	60	0	0	90	0	0	70	40	20	0	pest or weed control at 500 g/ha (Kochia (Kochia scoparia) [1]): 40%
COc1ccc([C@H]2CN(C)C(=O)[C@@H]2C(=O)Nc2ccccc2SC)cc1OC [Compound 854]	0	0	80	50	80	0	0	0	0	0	0	0	0	0	0	0	0	0	0	0	pest or weed control at 500 g/ha (Kochia (Kochia scoparia) [1]): 0%
COc1cc([C@H]2CN(C)C(=O)[C@@H]2C(=O)Nc2cccc(F)c2F)cc(C(F)(F)F)c1 [Compound 856]	40	90	90	90	90	20	50	0	20	50	80	40	30	80	80	20	50	75	0	0	pest or weed control at 500 g/ha (Kochia (Kochia scoparia) [1]): 50%
COc1cc(C(F)(F)F)ccc1[C@H]1CN(C)C(=O)[C@@H]1C(=O)Nc1cccc(F)c1F [Compound 859]	50	90	90	90	90	60	80	0	50	20	80	50	20	80	50	20	65	100	0	0	pest or weed control at 500 g/ha (Kochia (Kochia scoparia) [1]): 60%
COc1cc(C(F)(F)F)ccc1[C@H]1CN(C)C(=O)[C@@H]1C(=O)Nc1ccccc1SC [Compound 860]	0	90	90	90	90	60	90	0	50	20	40	20	0	30	0	0	0	90	0	0	pest or weed control at 500 g/ha (Kochia (Kochia scoparia) [1]): 60%
CSc1ccccc1NC(=O)[C@H]1C(=O)NC[C@@H]1c1cccc2c1OC(F)(F)O2 [Compound 865]	0	0	70	0	80	0	0	0	0	0	0	0	0	0	0	0	0	60	30	30	–
